Results: US5395610A, “Agents for potentiating the effects of antitumor agents and combating multiple drug resistance” (Burroughs-Wellcome Co., priority 1989, dated 1995)
Counter-ions that a name gives are not always drawn.

Experiments:
[1] = system: resistant sublines of murine leukemia cells; conditions: cited from earlier work
[2] = In vitro cytotoxicity / potentiation of Actinomycin D in human KB epidermoid carcinoma cells, drug resistant KB V-1 (MTT); assay type: cell-based; conditions: human, kb v-1 cells, fraction of untreated cultures, read-out: Cytotoxicity, normalized absorbance, Drug Resistant KB V-1, 0 (no Act D); for viability at 96 h, 1 µM: 1 μM potentiating agent alone; for viability at 96 h, 10 µM: 10 μM potentiating agent alone
[3] = system: human KB epidermoid carcinoma cells, drug resistant KB V-1; test: as above; assay type: cell-based; conditions: 96 h, fraction of Act D alone
[4] = In vitro cytotoxicity / potentiation of Actinomycin D in human KB epidermoid carcinoma cells, wildtype KB 3-1 (MTT); assay type: cell-based; conditions: human, kb 3-1 cells, fraction of untreated cultures, read-out: Cytotoxicity, normalized absorbance, Wildtype KB 3-1, 0 (no Act D); for viability at 96 h, 1 µM: 1 μM potentiating agent alone; for viability at 96 h, 10 µM: 10 μM potentiating agent alone
[5] = system: human KB epidermoid carcinoma cells, wildtype KB 3-1; test: as above; assay type: cell-based; conditions: 96 h, fraction of Act D alone
in vitro = assay type: cell-based, Chinese hamster; conditions: hamster, cho auxb1 cells
[6] = In vitro cytotoxicity / potentiation of Actinomycin D in Chinese hamster ovary cells, drug resistant C5S32 (MTT); assay type: cell-based; conditions: hamster, cho c5s32 cells, fraction of untreated cultures (1.00), read-out: Cytotoxicity, normalized absorbance, Drug Resistant C5S32, 0 (no Act D); for viability at 96 h, 1 µM: 1 μM potentiating agent alone; for viability at 96 h, 10 µM: 10 μM potentiating agent alone
[7] = system: Chinese hamster ovary (CHO) cells, drug resistant C5S32; test: as above; assay type: cell-based; conditions: 96 h, fraction of Act D alone (1.00)
[8] = 1 μM potentiating agent + Act D 20 nM
[9] = 10 μM potentiating agent + Act D 20 nM
[10] = 1 μM potentiating agent + Act D 0.1 nM
[11] = 10 μM potentiating agent + Act D 0.1 nM
[12] = 1 μM potentiating agent + Act D 0.5 μM
[13] = 10 μM potentiating agent + Act D 0.5 μM

| SMILES | enhancement of the activity of antitumor agents against resistant sublines of murine leukemia cells [1] | viability at 96 h, 1 µM [2] [%] | viability at 96 h, 10 µM [2] [%] | Synergism with Actinomycin D, normalized absorbance, Drug Resistant KB V-1, +ACT D [3, 8] | Synergism with Actinomycin D, normalized absorbance, Drug Resistant KB V-1, +ACT D [3, 9] | viability at 96 h, 1 µM [4] [%] | viability at 96 h, 10 µM [4] [%] | Synergism with Actinomycin D, normalized absorbance, Wildtype KB 3-1, +ACT D [5, 10] | Synergism with Actinomycin D, normalized absorbance, Wildtype KB 3-1, +ACT D [5, 11] | viability at 96 h, 1 µM (in vitro) [%] | viability at 96 h, 10 µM (in vitro) [%] | viability at 96 h, 1 µM [6] [%] | viability at 96 h, 10 µM [6] [%] | Synergism with Actinomycin D, normalized absorbance, Drug Resistant C5S32, +ACT D [7, 12] | Synergism with Actinomycin D, normalized absorbance, Drug Resistant C5S32, +ACT D [7, 13] |
| --- | --- | --- | --- | --- | --- | --- | --- | --- | --- | --- | --- | --- | --- | --- | --- |
| CN(C)CCCN1c2ccccc2CCc2ccc(Cl)cc21 [clomipramine] | enhance the activity of antitumor agents | – | – | – | – | – | – | – | – | – | – | – | – | – | – |
| COc1ccc(CCN(C)CCCC(C#N)(c2ccc(OC)c(OC)c2)C(C)C)cc1OC (stereo not drawn) [Verapamil] | enhance the activity of antitumor agents | – | – | – | – | – | – | – | – | – | – | – | – | – | – |
| CN(C)CC/C=C1/c2ccccc2COc2ccc(Br)cc21.Cl.Cl.Cl [(A), (Z)-3-(2-Bromo-6,11-dihydrodibenz [b,e]oxepin-11-ylidene)-N,N-dimethylpropylamine trihydrochloride] | – | 100 | 75 | 0.99 | 0.21 | 99 | 98 | 0.88 | 1.00 | 100 | 100 | 85 | 42 | 0.71 | 0.22 |
| CN1CCN(CCCN2c3ccccc3Sc3ccc(C(F)(F)F)cc32)CC1 [trifluoperazine] | enhance the activity of antitumor agents | – | – | – | – | – | – | – | – | – | – | – | – | – | – |
| Fc1ccc2c(c1)/C(=C/CCN1CCCC1)c1ccccc1CO2 [(S), (E)-1-[3-(2-fluoro-6,11-dihydrodibenz [b,e]-oxepin-11-ylidene)propyl]pyrrolidine] | – | 89 | 72 | 0.84 | 0.48 | 77 | 67 | 0.79 | 0.72 | 91 | 88 | 100 | 100 | 0.94 | 0.58 |
| CN(C)CC/C=C1/c2ccccc2COc2c(Br)cccc21 [(D), (Z)-3-(4-Bromo-6,11-dihydrodibenz [b,e]oxepin-11-ylidene)-N,N-dimethylpropylamine] | – | 75 | 36 | 0.78 | 0.01 | 88 | 51 | 0.86 | 0.65 | 100 | 100 | 89 | 34 | 0.71 | 0.31 |
| Brc1ccc2c(c1)/C(=C\CN1CCCC1)c1ccccc1CO2 [(F), (Z)-1-[2-(2-Bromo-6,11-dihydrodibenz [b,e]-oxepin-11-ylidene)ethyl]pyrrolidine] | – | 80 | 59 | 0.77 | 0.12 | 84 | 78 | 0.86 | 0.68 | 100 | 88 | 82 | 28 | 0.68 | 0.19 |
| CN(C)CC/C=C1\c2ccccc2COc2ccc(F)cc21 [(P), (E)-3-(2-fluoro-6,11-dihydrodibenz [b,e]oxepin-11-ylidine)-N,N-dimethylpropylamine] | – | 73 | 52 | 0.72 | 0.58 | 65 | 65 | 0.72 | 0.71 | 100 | 100 | 61 | 31 | 0.70 | 0.38 |
| Brc1cccc2c1OCc1ccccc1C2=CCN1CCCC1 [(J), 1-[2-(4-Bromo-6,11-dihydrodibenz[b,e]oxepin-11-ylidine)-ethyl]pyrrolidine 60% Z, 40% E] | – | 88 | 45 | 0.74 | 0.01 | 89 | 80 | 0.85 | 0.77 | 100 | 100 | 80 | 29 | 0.66 | 0.12 |
| CCN(CC)CC/C=C1/c2ccccc2COc2ccc(Br)cc21 [(I), (Z)-3-(2-Bromo-6,11-dihydrodibenz [b,e]oxepin-11-ylidene)-N,N-diethylpropylamine] | – | 98 | 34 | 0.95 | 0.04 | 99 | 30 | 0.99 | 0.40 | 90 | 92 | 95 | 100 | 0.77 | 0.36 |
| CN(C)CC/C=C1\c2ccccc2COc2ccc(Br)cc21 [(B), (E)-3-(2-Bromo-6,11-dihydrodibenz [b,e]oxepin-11-ylidene)-N,N-dimethylpropylamine 3/2 hydrochloride] | – | 100 | 44 | – | 0.01 | 100 | 83 | – | 0.91 | 98 | 87 | 83 | 55 | 0.82 | 0.37 |
| Fc1ccc2c(c1)/C(=C\CCN1CCCC1)c1ccccc1CO2 [(T), (Z)-1-[3-(2-fluoro-6,11-dihydrodibenz [b,e]-oxepin-11-ylidene)propyl]pyrrolidine] | – | 96 | 84 | 0.92 | 0.64 | 86 | 81 | 0.90 | 0.83 | 100 | 100 | 100 | 100 | 1.00 | 0.53 |
| CN(C)CC/C=C1/c2cc(Br)ccc2COc2ccccc21 [(C), (Z)-3-(9-Bromo-6,11-dihydrodibenz [b,e]oxepin-11-ylidene)-N,N-dimethylpropylamine] | – | 100 | 34 | 0.97 | 0.36 | 100 | 100 | 0.78 | 0.75 | 100 | 92 | 100 | 100 | 0.90 | 0.54 |
